The IC50 is the concentration that inhibits the measured activity by half. Low values mean inhibition by little substance, high ones a need for much substance.

Consider 13 molecules from US20250282799A1, “SUBSTITUTED PYRIDO[4,3-d]PYRIMIDINES AS KRAS MODULATORS” (Alterome Therapeutics, Inc., priority 2023, published 2025).

The assay concerns KRAS G12V dependent lung adenocarcinoma cell line, NCI-H441. Nature of the assay: Cellular pERK (Thr202/Tyr204) FRET/HTRF assay. It is filed as cell-based. The settings on record: Homo sapiens, NCI-H441, cellular pERK (Thr202/Tyr204) HTRF, NCI-H441 cells. Summed up:
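NCI-H441 cells (KRAS G12V) plated overnight at 37 °C, then exposed to compounds for 1 hr at 37 °C, 5% CO2; DMSO as negative control. Lysates read by Eu-cryptate/d2 sandwich FRET (665 nm) for ERK1/2 phosphorylated at Thr202/Tyr204; IC50 from curve fit.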
A general note: TR-FRET usually uses a lanthanide donor and a delayed reading to cut background.

Molecules are shown by their SMILES. Where only a bound is given, the exact number is not on record here.

Turning to `C#Cc1c(F)ccc2cccc(-c3ncc4c(N5CCOC[C@H]6[C@H](F)[C@H]65)nc(OC[C@@]56CCCN5CC(=C(F)F)C6)nc4c3F)c12` [Example 102, (1S,7S,8S)-2-(2-(((S)-2-(Difluoromethylene)tetrahydro-1H-pyrrolizin-7a(5H)-yl)methoxy)-7-(8-ethynyl-7-fluoronaphthalen-1-yl)-8-fluoropyrido[4,3-d]pyrimidin-4-yl)-8-fluoro-5-oxa-2-azabicyclo[5.1.0]octane], the IC50 was under 0.05 µM.
The figure for `C#Cc1c(F)ccc2cccc(-c3ncc4c(N5CCOC[C@@H]6[C@@H](F)[C@@H]65)nc(OC[C@@]56CCCN5CC(=C(F)F)C6)nc4c3F)c12` [Example 103, (1R,7R,8R)-2-(2-(((S)-2-(difluoromethylene)tetrahydro-1H-pyrrolizin-7a(5H)-yl)methoxy)-7-(8-ethynyl-7-fluoronaphthalen-1-yl)-8-fluoropyrido[4,3-d]pyrimidin-4-yl)-8-fluoro-5-oxa-2-azabicyclo[5.1.0]octane] is 0.5 to 10 µM; for `C#Cc1c(F)ccc2cccc(-c3ncc4c(N5CCOC[C@H]6[C@H](F)[C@H]65)nc(OC[C@]56CCCN5CC(=C(F)F)C6)nc4c3F)c12` [Example 104, (1S,7S,8S)-2-(2-(((R)-2-(difluoromethylene)tetrahydro-1H-pyrrolizin-7a(5H)-yl)methoxy)-7-(8-ethynyl-7-fluoronaphthalen-1-yl)-8-fluoropyrido[4,3-d]pyrimidin-4-yl)-8-fluoro-5-oxa-2-azabicyclo[5.1.0]octane] it is under 0.05 µM.
The figure for `C#Cc1c(F)c(F)cc2cccc(-c3ncc4c(N5CCOC[C@H]6[C@H](F)[C@H]65)nc(OC[C@@]56CCCN5CC(=C(F)F)C6)nc4c3F)c12` [Example 105, (1S,7S,8S)-2-(2-(((S)-2-(difluoromethylene)tetrahydro-1H-pyrrolizin-7a(5H)-yl)methoxy)-7-(8-ethynyl-6,7-difluoronaphthalen-1-yl)-8-fluoropyrido[4,3-d]pyrimidin-4-yl)-8-fluoro-5-oxa-2-azabicyclo[5.1.0]octane] is under 0.05 µM; for `C#Cc1c(F)c(F)cc2cccc(-c3ncc4c(N5CCOC[C@@H]6[C@@H](F)[C@@H]65)nc(OC[C@@]56CCCN5CC(=C(F)F)C6)nc4c3F)c12` [Example 106, (1R,7R,8R)-2-(2-(((S)-2-(difluoromethylene)tetrahydro-1H-pyrrolizin-7a(5H)-yl)methoxy)-7-(8-ethynyl-6,7-difluoronaphthalen-1-yl)-8-fluoropyrido[4,3-d]pyrimidin-4-yl)-8-fluoro-5-oxa-2-azabicyclo[5.1.0]octane] it is 0.5 to 10 µM.
The figure for `C#Cc1c(F)c(F)cc2cccc(-c3ncc4c(N5CCOC[C@H]6[C@H](F)[C@H]65)nc(OC[C@]56CCCN5CC(=C(F)F)C6)nc4c3F)c12` [Example 107, (1S,7S,8S)-2-(2-(((R)-2-(difluoromethylene)tetrahydro-1H-pyrrolizin-7a(5H)-yl)methoxy)-7-(8-ethynyl-6,7-difluoronaphthalen-1-yl)-8-fluoropyrido[4,3-d]pyrimidin-4-yl)-8-fluoro-5-oxa-2-azabicyclo[5.1.0]octane] is 0.05 to 0.5 µM.
`[2H]C([2H])(Oc1nc(N2CCOC[C@H]3[C@H](F)[C@H]32)c2cnc(-c3cc(N)cc4c(F)cc(F)c(C#C)c34)c(F)c2n1)[C@@]12CCCN1C[C@H](F)C2` [Example 108, 5-ethynyl-6,8-difluoro-4-(8-fluoro-4-((1S,7S,8S)-8-fluoro-5-oxa-2-azabicyclo[5.1.0]octan-2-yl)-2-(((2R,7aS)-2-fluorotetrahydro-1H-pyrrolizin-7a(5H)-yl)methoxy-d2)pyrido[4,3-d]pyrimidin-7-yl)naphthalen-2-amine] showed an IC50 of under 0.05 µM.
To `[2H]C([2H])([2H])Oc1c(F)c(F)cc2cccc(-c3ncc4c(N5CCCC[C@H]6[C@H](F)[C@H]65)nc(OC([2H])([2H])[C@@]56CCCN5C[C@H](F)C6)nc4c3F)c12` [Example 109, 7-(6,7-difluoro-8-(methoxy-d3)naphthalen-1-yl)-8-fluoro-4-((1S,7R,8S)-8-fluoro-2-azabicyclo[5.1.0]octan-2-yl)-2-(((2R,7aS)-2-fluorotetrahydro-1H-pyrrolizin-7a(5H)-yl)methoxy-d2)pyrido[4,3-d]pyrimidine] belongs 0.05 to 0.5 µM; to `[2H]C([2H])([2H])Oc1c(F)c(F)c(F)c2cccc(-c3ncc4c(N5CCCC[C@H]6[C@H](F)[C@H]65)nc(OC([2H])([2H])[C@@]56CCCN5C[C@H](F)C6)nc4c3F)c12` [Example 110, 8-fluoro-4-((1S,7R,8S)-8-fluoro-2-azabicyclo[5.1.0]octan-2-yl)-2-(((2R,7aS)-2-fluorotetrahydro-1H-pyrrolizin-7a(5H)-yl)methoxy-d2)-7-(5,6,7-trifluoro-8-(methoxy-d3)naphthalen-1-yl)pyrido[4,3-d]pyrimidine], 0.5 to 10 µM.
The figure for `[2H]C([2H])(Oc1nc(N2CCCC[C@H]3[C@H](F)[C@H]32)c2cnc(-c3cccc4c(F)c(F)c(F)c(C#C)c34)c(F)c2n1)[C@@]12CCCN1C[C@H](F)C2` [Example 111, 7-(8-ethynyl-5,6,7-trifluoronaphthalen-1-yl)-8-fluoro-4-((1S,7R,8S)-8-fluoro-2-azabicyclo[5.1.0]octan-2-yl)-2-(((2R,7aS)-2-fluorotetrahydro-1H-pyrrolizin-7a(5H)-yl)methoxy-d2)pyrido[4,3-d]pyrimidine] is 0.5 to 10 µM; for `[2H]C([2H])(Oc1nc(N2CCCC[C@H]3[C@H](F)[C@H]32)c2cnc(-c3cccc4c(F)cc(F)c(C#C)c34)c(F)c2n1)[C@@]12CCCN1C[C@H](F)C2` [Example 112, 7-(8-ethynyl-5,7-difluoronaphthalen-1-yl)-8-fluoro-4-((1S,7R,8S)-8-fluoro-2-azabicyclo[5.1.0]octan-2-yl)-2-(((2R,7aS)-2-fluorotetrahydro-1H-pyrrolizin-7a(5H)-yl)methoxy-d2)pyrido[4,3-d]pyrimidine] it is 0.05 to 0.5 µM; for `[2H]C([2H])(Oc1nc(N2CCOC[C@H]3[C@H](F)[C@H]32)c2cnc(-c3cncc4ccc(F)c(Cl)c34)c(F)c2n1)[C@@]12CCCN1C[C@H](F)C2` [Example 113, (1S,7S,8S)-2-(7-(5-chloro-6-fluoroisoquinolin-4-yl)-8-fluoro-2-(((2R,7aS)-2-fluorotetrahydro-1H-pyrrolizin-7a(5H)-yl)methoxy-d2)pyrido[4,3-d]pyrimidin-4-yl)-8-fluoro-5-oxa-2-azabicyclo[5.1.0]octane] it is 0.5 to 10 µM.
To `[2H]C([2H])(Oc1nc(N2CCOC[C@H]3[C@H](F)[C@H]32)c2cnc(-c3cncc4ccc(F)c(C#C)c34)c(F)c2n1)[C@@]12CCCN1C[C@H](F)C2` [Example 114, (1S,7S,8S)-2-(7-(5-Ethynyl-6-fluoroisoquinolin-4-yl)-8-fluoro-2-(((2R,7aS)-2-fluorotetrahydro-1H-pyrrolizin-7a(5H)-yl)methoxy-d2)pyrido[4,3-d]pyrimidin-4-yl)-8-fluoro-5-oxa-2-azabicyclo[5.1.0]octane] belongs under 0.05 µM.
